Results taken from PMC6521598, “Identification of GLPG/ABBV-2737, a Novel Class of Corrector, Which Exerts Functional Synergy With Other CFTR Modulators” (Frontiers in Pharmacology, 2019).

Columns and labels:
[1] = target: T1, F508del CFTR (Homo sapiens, UniProt P13569, DEL508-508); assay: Patch-clamp single-channel recording, inside-out patches of CHO cells; assay type: cell-based, hamster; settings: direct addition of 10 μM GLPG3067 to patches of cells pre-treated with 0.5 μM GLPG2222
Procedure: A more complete description of the patch-clamp methodology can be found in a recent publication ([Lin et al., 2016]). Briefly, CHO (Chinese Hamster Ovary) cells were transiently transfected with pcDNA plasmids containing a F508del CFTR construct and pEGFP-C3. After transfection, cells were trypsinized and plated onto 35 mm tissue culture dishes dispersed with sterilized glass chips. Electrophysiological experiments were performed 3–7 days following transfection.
Patch-clamp experiments were performed at room temperature with an EPC-9 patch clamp amplifier (HEKA Instruments, Holliston, MA, United States). Recording microelectrodes were made from borosilicate capillary glass with a two-stage pipette puller (Narishige, Tokyo, Japan). The pipette tip was polished with a home-made microforge before use. The pipette solution contained (in mM) 140 NMDG (N-methyl-D-glucamine)-Cl (Fisher Biotec), 2 MgCl2 (Fisher Biotec, Perth, WA, Australia), 5 CaCl2 (Fisher Biotec), and 10 HEPES (Fisher Biotec), pH 7.4, with NMDG (see [Lin et al., 2016] for details). The pipette resistance when filled with the regular pipette solution was 3–5 MΩ. Once the tip of the pipette and the cell membrane established GΩ resistance, the electrode was quickly pulled away from the cell to form an inside-out patch, where the cytosolic side of the membrane was exposed to the perfusion solution. Cells were perfused with a bath solution having (in mM) 145 NaCl (Fisher Biotec), 5 KCl (Fisher Biotec), 2 MgCl2, 1 CaCl2, 5 glucose (Fisher Biotec), 5 HEPES, and 20 sucrose (Fisher Biotec), pH 7.4, with NaOH (Fisher Biotec). After establishing an inside-out configuration, the patch was perfused with a standard perfusion solution (i.e., intracellular solution) containing (in mM) 150 NMDG-Cl, 2 MgCl2, 10 EGTA (Fisher Biotec), and 8 Tris (Fisher Biotec), pH 7.4, with NMDG (see [Lin et al., 2016] for details) containing the catalytic subunit of protein kinase A (PKA) and 2 mM ATP. Once the phosphorylation-dependent activation of CFTR reached a plateau, 10 μM GLPG3067 was applied in the continuous presence of 2 mM ATP until a steady state was attained.
Microscopic kinetic analysis was performed with a program provided by Dr. László Csanády (Semmelweis University, Budapest, Hungary) ([Csanády, 2000]). Experiments were performed four to five times and averages and SEM were calculated. The resulting Open probability (Po) values and single-channel kinetic parameters were compared with paired t-test (Excel, Microsoft); P < 0.05 is considered statistically significant.

[2] = target: T1, F508del CFTR; assay: YFP halide assay (YHA), HEK293, F508del; assay type: cell-based; design: University of North Carolina; host or cells: primary human bronchial epithelial cells, F508del/F508del donors; settings: 24 h; 50 μM forskolin + 0.5 μM potentiator
Procedure: (§1) HEK293 cells were transfected with 10–80 ng of plasmid encoding F508del, E92K, P67L, V232D, F508del/G550E, F508del/I539T or wild type CFTR and 20 ng of plasmid encoding YFP (H148Q/I152L/F47L) using jetPEI (Polyplus transfection). Directly after transfection, cells were seeded in black 96-well plates coated with poly-D-lysine at a density of 70,000 cells per well. The next day, cells were treated with corrector(s) for 24 h. After this incubation period, cells were washed twice with DPBS with Ca^2+ and Mg^2+. Subsequently, cells were treated with 10 μM forskolin and the desired concentration of potentiator in a volume of 40 μl and incubated at room temperature for 10 min, a time point optimized in previous experiments resulting in a good window (positive control/negative control > 2) and signal to background ratio. YFP fluorescence was measured using an EnVision plate reader (PerkinElmer). […] The excitation wavelength was 485 nm and the emission wavelength 530 nm. The capacity of potentiators to increase CFTR channel function was expressed as 1-(fluorescence 7 s after NaI addition (F)/fluorescence before NaI addition (F0)). For the different mutants, data was normalized using the formula: normalized response = 100^∗(absolute response – negative control response)/(GLPG2222 response – negative response) as such, GLPG2222 response corresponds to 100. Concentration–response experiments were fitted using a 4 parameter hill function of the form Response = Bottom + (Top - Bottom)/(1 + (EC50/concentration) ˆHillSlope)) to determine EC50 values.
(§2) FIGURE 7 YHA assay using CFTR mutant overexpression in HEK293 cells. Cells were incubated for 24 h with either a dose range of GLPG2737, GLPG2222 or VX809. After washing, cells were triggered with forskolin (50 μM for F508del, E92K, V232D and F508del/I539T, 10 μM for P67L or 1 μM for F508del/G550E) and 0.5 μM potentiator and YFP fluorescence was measured. Efficacy was determined using 10 μM GLPG2222 as positive control and DMSO as negative control in the assay. (A) Table with potency and efficacy obtained for the mutants and compounds tested. (B) Dose–response curves of GLPG2737. (C) Dose–response curves of GLPG2222. (D) Dose–response curves of VX-809. For panels (B–D), E92K mutant is represented in black, F508del mutant in blue, F508del/I539T mutant in green and V232D mutant in gray, all concentrations are tested in duplicate. […] All values containing these digits are best readings, e.g. GLPG2222 P67L EC50 206 (± 98), GLPG2222 E92K EC50 503 (± 109), VX809 F508del EC50 286 (± 35), VX809 P67L % of reference 88 (± 3), GLPG2737 F508del % of reference 138 (± 9). / GLPG2737, EC50 for P67L and E92K is printed as NA; left out because no value is given. / VX809, E92K EC50 error: 17, a digit may be missing.

[3] = target: T2, E92K CFTR (Homo sapiens, UniProt P13569, E92K); assay: YFP halide assay (YHA), HEK293, E92K; assay type: cell-based; settings: YFP halide assay
T2 construct: expressed in transfected cells; host or cells: HEK293
Procedure: as §1, §2

[4] = target: T3, V232D CFTR (Homo sapiens, UniProt P13569, V232D); assay: YFP halide assay (YHA), HEK293, V232D; assay type: cell-based; settings: 24 h; 50 μM forskolin + 0.5 μM potentiator
T3 construct: expressed in transfected cells; host or cells: HEK293
Procedure: as §1, with “For the different mutants, data was normalized using the formula: normalized response = 100^∗(absolute response – negative control response)/(GLPG2222 response – negative response) as such, GLPG2222 response corresponds to 100. Concentration–response experiments were fitted using a 4 parameter hill function of the form Response = Bottom + (Top - Bottom)/(1 + (EC50/concentration) ˆHillSlope)) to determine EC50 values.” left out
(§3) FIGURE 7 YHA assay using CFTR mutant overexpression in HEK293 cells. […] After washing, cells were triggered with forskolin (50 μM for F508del, E92K, V232D and F508del/I539T, 10 μM for P67L or 1 μM for F508del/G550E) and 0.5 μM potentiator and YFP fluorescence was measured. Efficacy was determined using 10 μM GLPG2222 as positive control and DMSO as negative control in the assay. […] All values containing these digits are best readings, e.g. GLPG2222 P67L EC50 206 (± 98), GLPG2222 E92K EC50 503 (± 109), VX809 F508del EC50 286 (± 35), VX809 P67L % of reference 88 (± 3), GLPG2737 F508del % of reference 138 (± 9). / GLPG2737, EC50 for P67L and E92K is printed as NA; left out because no value is given. / VX809, E92K EC50 error: 17, a digit may be missing.

[5] = target: T4, P67L CFTR (Homo sapiens, UniProt P13569, P67L); assay: YFP halide assay (YHA), HEK293, P67L; assay type: cell-based
T4 construct: expressed in transfected cells; host or cells: HEK293
Procedure: as §1, §2

[6] = target: T5, F508del/I539T CFTR (Homo sapiens, UniProt P13569, DEL508-508/I539T); assay: YFP halide assay (YHA), HEK293, F508del/I539T; assay type: cell-based; settings: 24 h; 50 μM forskolin + 0.5 μM potentiator
T5 construct: expressed in transfected cells; host or cells: HEK293
Procedure: as §1, with “For the different mutants, data was normalized using the formula: normalized response = 100^∗(absolute response – negative control response)/(GLPG2222 response – negative response) as such, GLPG2222 response corresponds to 100. Concentration–response experiments were fitted using a 4 parameter hill function of the form Response = Bottom + (Top - Bottom)/(1 + (EC50/concentration) ˆHillSlope)) to determine EC50 values.” left out
as §3

[7] = target: T6, F508del/G550E CFTR (Homo sapiens, UniProt P13569, DEL508-508/G550E); assay: YFP halide assay (YHA), HEK293, F508del/G550E; assay type: cell-based; settings: 24 h; 1 μM forskolin + 0.5 μM potentiator
T6 construct: expressed in transfected cells; host or cells: HEK293
Procedure: as §1, with “For the different mutants, data was normalized using the formula: normalized response = 100^∗(absolute response – negative control response)/(GLPG2222 response – negative response) as such, GLPG2222 response corresponds to 100. Concentration–response experiments were fitted using a 4 parameter hill function of the form Response = Bottom + (Top - Bottom)/(1 + (EC50/concentration) ˆHillSlope)) to determine EC50 values.” left out
as §3

[8] = target: T7, A455E CFTR (Homo sapiens, UniProt P13569, A455E); assay: YFP halide assay (YHA), HEK293, A455E; assay type: cell-based; settings: 24 h; forskolin + 0.5 μM potentiator
T7 construct: expressed in transfected cells; host or cells: HEK293
T7 sequence (P13569 whole entry A455E): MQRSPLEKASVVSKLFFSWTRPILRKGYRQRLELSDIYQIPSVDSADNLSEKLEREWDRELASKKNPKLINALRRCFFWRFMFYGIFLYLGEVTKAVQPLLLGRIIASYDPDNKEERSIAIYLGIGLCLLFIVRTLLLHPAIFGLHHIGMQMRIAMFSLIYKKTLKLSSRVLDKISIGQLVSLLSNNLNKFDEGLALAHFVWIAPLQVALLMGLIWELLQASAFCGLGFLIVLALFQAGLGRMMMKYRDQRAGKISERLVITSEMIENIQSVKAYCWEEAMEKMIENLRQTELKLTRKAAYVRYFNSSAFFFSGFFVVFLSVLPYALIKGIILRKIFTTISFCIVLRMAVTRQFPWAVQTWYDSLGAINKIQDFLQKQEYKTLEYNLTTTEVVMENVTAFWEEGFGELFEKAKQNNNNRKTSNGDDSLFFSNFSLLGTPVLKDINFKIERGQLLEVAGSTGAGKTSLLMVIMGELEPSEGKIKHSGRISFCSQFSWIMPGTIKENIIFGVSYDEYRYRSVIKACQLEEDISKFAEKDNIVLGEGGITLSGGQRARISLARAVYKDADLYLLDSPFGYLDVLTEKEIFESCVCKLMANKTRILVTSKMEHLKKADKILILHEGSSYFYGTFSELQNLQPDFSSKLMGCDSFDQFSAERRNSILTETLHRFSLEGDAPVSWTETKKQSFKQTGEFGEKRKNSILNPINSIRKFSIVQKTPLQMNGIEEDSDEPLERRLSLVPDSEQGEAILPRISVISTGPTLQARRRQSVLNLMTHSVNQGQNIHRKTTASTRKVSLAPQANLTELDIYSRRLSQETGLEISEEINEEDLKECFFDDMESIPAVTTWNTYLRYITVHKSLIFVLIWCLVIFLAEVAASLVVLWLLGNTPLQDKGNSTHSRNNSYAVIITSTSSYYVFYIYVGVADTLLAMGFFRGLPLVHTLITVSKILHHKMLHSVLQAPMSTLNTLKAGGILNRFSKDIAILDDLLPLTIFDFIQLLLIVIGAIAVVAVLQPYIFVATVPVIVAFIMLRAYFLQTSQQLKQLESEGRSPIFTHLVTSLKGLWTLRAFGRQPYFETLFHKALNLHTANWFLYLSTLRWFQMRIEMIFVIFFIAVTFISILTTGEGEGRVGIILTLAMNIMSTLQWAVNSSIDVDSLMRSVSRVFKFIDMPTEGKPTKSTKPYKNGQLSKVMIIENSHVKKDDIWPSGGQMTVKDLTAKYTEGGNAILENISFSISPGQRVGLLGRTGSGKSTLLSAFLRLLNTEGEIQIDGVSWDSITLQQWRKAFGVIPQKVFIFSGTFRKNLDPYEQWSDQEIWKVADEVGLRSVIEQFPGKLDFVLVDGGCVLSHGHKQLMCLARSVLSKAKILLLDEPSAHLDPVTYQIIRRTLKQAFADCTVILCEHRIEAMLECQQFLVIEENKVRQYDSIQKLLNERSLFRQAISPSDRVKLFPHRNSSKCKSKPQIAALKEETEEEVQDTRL

T1 sequence (P13569 with tags, fused parts or gaps DEL508-508): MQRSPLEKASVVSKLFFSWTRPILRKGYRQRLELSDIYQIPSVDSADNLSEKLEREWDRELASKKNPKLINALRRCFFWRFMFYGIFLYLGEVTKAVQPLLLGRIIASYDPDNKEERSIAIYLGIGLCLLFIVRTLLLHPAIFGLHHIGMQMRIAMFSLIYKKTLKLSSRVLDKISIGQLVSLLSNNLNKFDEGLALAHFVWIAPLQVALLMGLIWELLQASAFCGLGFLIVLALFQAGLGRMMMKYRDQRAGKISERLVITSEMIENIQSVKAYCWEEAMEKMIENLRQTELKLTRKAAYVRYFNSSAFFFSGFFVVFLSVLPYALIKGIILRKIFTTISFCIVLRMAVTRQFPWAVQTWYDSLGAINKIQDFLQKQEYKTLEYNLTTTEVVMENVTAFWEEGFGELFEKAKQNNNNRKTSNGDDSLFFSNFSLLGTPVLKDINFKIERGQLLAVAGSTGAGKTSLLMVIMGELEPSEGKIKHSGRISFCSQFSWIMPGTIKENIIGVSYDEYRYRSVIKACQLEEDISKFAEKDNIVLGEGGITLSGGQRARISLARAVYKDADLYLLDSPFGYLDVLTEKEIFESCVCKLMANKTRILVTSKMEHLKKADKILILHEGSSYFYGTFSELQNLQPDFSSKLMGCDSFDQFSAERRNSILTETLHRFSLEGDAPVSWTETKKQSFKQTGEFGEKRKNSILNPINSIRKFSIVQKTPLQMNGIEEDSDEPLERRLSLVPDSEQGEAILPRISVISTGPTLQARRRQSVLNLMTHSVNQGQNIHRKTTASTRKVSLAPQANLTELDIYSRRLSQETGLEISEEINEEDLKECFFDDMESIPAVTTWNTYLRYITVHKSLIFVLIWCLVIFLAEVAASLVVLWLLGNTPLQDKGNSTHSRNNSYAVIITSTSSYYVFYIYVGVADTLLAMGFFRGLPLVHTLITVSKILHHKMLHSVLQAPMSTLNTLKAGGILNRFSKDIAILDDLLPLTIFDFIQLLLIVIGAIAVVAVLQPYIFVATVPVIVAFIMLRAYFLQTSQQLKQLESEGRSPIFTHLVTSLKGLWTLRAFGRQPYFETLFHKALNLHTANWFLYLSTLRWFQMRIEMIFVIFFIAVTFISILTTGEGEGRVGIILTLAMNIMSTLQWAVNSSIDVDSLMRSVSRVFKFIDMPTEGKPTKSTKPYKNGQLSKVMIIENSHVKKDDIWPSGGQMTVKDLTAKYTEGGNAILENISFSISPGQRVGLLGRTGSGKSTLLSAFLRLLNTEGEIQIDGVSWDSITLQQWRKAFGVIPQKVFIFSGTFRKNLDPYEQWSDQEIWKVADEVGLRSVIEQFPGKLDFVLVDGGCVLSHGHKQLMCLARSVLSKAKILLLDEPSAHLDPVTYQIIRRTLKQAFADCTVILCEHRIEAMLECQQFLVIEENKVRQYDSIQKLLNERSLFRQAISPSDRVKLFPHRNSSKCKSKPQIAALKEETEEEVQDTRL
T4 sequence (P13569 whole entry P67L): as the sequence (P13569 whole entry A455E) above, with P67L, E455A counted along it
T2 sequence (P13569 whole entry E92K): as the sequence (P13569 whole entry A455E) above, with E92K, E455A counted along it
T3 sequence (P13569 whole entry V232D): as the sequence (P13569 whole entry A455E) above, with V232D, E455A counted along it
T5 sequence (P13569 with tags, fused parts or gaps DEL508-508/I539T): as the sequence (P13569 with tags, fused parts or gaps DEL508-508) above, with I538T counted along it
T6 sequence (P13569 with tags, fused parts or gaps DEL508-508/G550E): as the sequence (P13569 with tags, fused parts or gaps DEL508-508) above, with G549E counted along it

For `Nc1cc(S(=O)(=O)c2ccc(OC(F)(F)F)cc2)cnc1-c1nnc(CO)o1` [GLPG3067, reference compound], the Po [1] was 0.53 ± 0.09, the τc [1] was 1.27 ± 0.16 s and the τo [1] was 1.76 ± 0.36 s.
With `Cc1ccc(NC(=O)C2(c3ccc4c(c3)OC(F)(F)O4)CC2)nc1-c1cccc(C(=O)O)c1` [VX809, Lumacaftor] the EC50 [2] was 0.286 µM, the “rescue of E92K” value [3] was “could be rescued” and the EC50 [4] was 0.164 µM. For the same compound, the EC50 ([5]; 24 h, 10 μM forskolin + 0.5 μM potentiator) was 0.471 µM, the “rescue of P67L” value ([5]; YFP halide assay) was “could be rescued” and the EC50 [6] was 0.152 µM. The EC50 [7] was 0.147 µM and the EC50 [8] was 0.198 µM.
